For one experiment, the system named is Escherichia coli(ε). As to the kind of experiment: Production by secretion in microbial culture system, protease expressing strain (Table 5). Type of experiment: cell-based. The following applies: Example 12, surfactant 1 wt %. The text has this: A subtilisin Carlsberg gene of a Bacillus licheniformis was amplified by the PCR method using primers 7 and 8 (Table 4). After being treated with restriction enzymes NcoI and BamHI, a PCR amplified fragment was bound to an NcoI restriction enzyme site and a BamHI restriction enzyme site of a pET-22b plasmid (product of Novagen). Then, the plasmid was transformed into a BL21 (DE3) Escherichia coli strain (product of Novagen) to form Escherichia coli (ε) that expresses protease.
Overnight cultures (1 ml) of Escherichia coli (δ) obtained in Production Example 4 and Escherichia coli (ε) obtained in Production Example 5 were respectively prepared as Comparative Example 2 and Comparative Example 4. An amount of 0.5 ml of each was inoculated in 5 ml of an LB culture solution (containing 100 mg/L of ampicillin) and was shake-cultured at 30° C. for 3 hours. In this manner, pre-culture solutions were prepared. […] The whole protein in the culture solution was analyzed by SDS-PAGE. Based on the obtained amount of the protein band, the recombinant protein was quantified.
Performance of this processes for several times clarified the proportional relationship between the turbidity of the culture solution and the dried cell density. Therefore, the dried cell density was obtained from the measured turbidity in each of Comparative Examples 2 to 4 and Examples 2 to 14. […]

In the next experiment the test system is Escherichia coli (β). In words: Shake culture with surfactant, time course of protein production (Example 1, FIG. 1). The following applies: surfactant 1%; after 21 hours from the initiation. The experiment is classed as cell-based. The procedure:
Escherichia coli (β) was inoculated in 10 mL of an LB culture medium and was shake-cultured at 37° C. overnight. In this manner, a culture solution was prepared. The strains were collected using a centrifuge and the collected Escherichia coli (β) strain was resuspended in 10 ml of a TB culture medium (product of Difco). Shake culture at 37° C. induced expression of torA. Sampling was performed after 0, 0.5, 1, and 2 hours from the start of the shake culture, and harvesting using a centrifuge was carried out for each sampled solution. Collected bacterial cells were suspended in a buffer solution (50 mM Tris (pH 7.5), 100 mM NaCl) and ultrasonic fragmentation was performed (200 W, 10 minutes). Then, an SDS-PAGE analysis was performed to quantify the produced recombinant protein band. Based on the obtained data, the protein amount per gram of the bacterial cell was calculated and a graph was constructed.
The same processes were carried out as in Comparative Example 1 except that the surfactant A-7 was used as the surfactant (A) for the expression induction in an amount of 1% on the basis of the weight of the culture solution, and that sampling was performed after 0, 2, 4, 15, 19, and 21 hours from the initiation and analysis was performed on the supernatants of the centrifuged samples. A graph was similarly constructed.

The record followed here is patent US9328369B2, “Process for production of useful substance, and surfactant for use in the process” (priority 2009, dated 2016).

“Cured palm oil fatty acid amidopropyl dimethyl aminoacetate betaine [A-6]” showed a Turbidity in the experiment with Escherichia coli(ε) of 95. In the experiment with Escherichia coli(ε) (obtained from turbidity), the “Dried cell density” value was 26.6 g/L. In addition, in the experiment with Escherichia coli(ε) (supernatant, SDS-PAGE), the “Quantitative value of produced recombinant protein” value is recorded as 0.37 g/L.

On to Sodium cocaminopropionate [A-7], for which the “Dried cell density of the culture solution” value in the experiment on Escherichia coli (β) worked out at 1.72 g/L.
